Where two headings read alike, the source gives them in different places.
What was measured:
BRG-1 = BRG-1 (Homo sapiens, UniProt P51532); assay: ATPase catalytic activity assay of BRG-1 (ADP-Glo); type: biochemical; details: ATPase catalytic activity, ADP-Glo; for IC50: read-out: BRG1 IC50 (μM)*; for Emax: read-out: BRG1 Max % Inhibition
Procedure, shortened: (§1)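 ATPase activity of BRG-1 or BRM was read by ADP-Glo. Residual ATP was depleted (40 min, room temperature), then ADP was converted to ATP (60 min, room temperature) and measured as luciferase luminescence.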

BRM = BRM (Homo sapiens, UniProt P51531); assay: ATPase catalytic activity assay of BRM (ADP-Glo); type: biochemical; details: for IC50: read-out: BRM IC50 (μM)*
Procedure, shortened: as §1

Chain of BRM (P51531 whole entry): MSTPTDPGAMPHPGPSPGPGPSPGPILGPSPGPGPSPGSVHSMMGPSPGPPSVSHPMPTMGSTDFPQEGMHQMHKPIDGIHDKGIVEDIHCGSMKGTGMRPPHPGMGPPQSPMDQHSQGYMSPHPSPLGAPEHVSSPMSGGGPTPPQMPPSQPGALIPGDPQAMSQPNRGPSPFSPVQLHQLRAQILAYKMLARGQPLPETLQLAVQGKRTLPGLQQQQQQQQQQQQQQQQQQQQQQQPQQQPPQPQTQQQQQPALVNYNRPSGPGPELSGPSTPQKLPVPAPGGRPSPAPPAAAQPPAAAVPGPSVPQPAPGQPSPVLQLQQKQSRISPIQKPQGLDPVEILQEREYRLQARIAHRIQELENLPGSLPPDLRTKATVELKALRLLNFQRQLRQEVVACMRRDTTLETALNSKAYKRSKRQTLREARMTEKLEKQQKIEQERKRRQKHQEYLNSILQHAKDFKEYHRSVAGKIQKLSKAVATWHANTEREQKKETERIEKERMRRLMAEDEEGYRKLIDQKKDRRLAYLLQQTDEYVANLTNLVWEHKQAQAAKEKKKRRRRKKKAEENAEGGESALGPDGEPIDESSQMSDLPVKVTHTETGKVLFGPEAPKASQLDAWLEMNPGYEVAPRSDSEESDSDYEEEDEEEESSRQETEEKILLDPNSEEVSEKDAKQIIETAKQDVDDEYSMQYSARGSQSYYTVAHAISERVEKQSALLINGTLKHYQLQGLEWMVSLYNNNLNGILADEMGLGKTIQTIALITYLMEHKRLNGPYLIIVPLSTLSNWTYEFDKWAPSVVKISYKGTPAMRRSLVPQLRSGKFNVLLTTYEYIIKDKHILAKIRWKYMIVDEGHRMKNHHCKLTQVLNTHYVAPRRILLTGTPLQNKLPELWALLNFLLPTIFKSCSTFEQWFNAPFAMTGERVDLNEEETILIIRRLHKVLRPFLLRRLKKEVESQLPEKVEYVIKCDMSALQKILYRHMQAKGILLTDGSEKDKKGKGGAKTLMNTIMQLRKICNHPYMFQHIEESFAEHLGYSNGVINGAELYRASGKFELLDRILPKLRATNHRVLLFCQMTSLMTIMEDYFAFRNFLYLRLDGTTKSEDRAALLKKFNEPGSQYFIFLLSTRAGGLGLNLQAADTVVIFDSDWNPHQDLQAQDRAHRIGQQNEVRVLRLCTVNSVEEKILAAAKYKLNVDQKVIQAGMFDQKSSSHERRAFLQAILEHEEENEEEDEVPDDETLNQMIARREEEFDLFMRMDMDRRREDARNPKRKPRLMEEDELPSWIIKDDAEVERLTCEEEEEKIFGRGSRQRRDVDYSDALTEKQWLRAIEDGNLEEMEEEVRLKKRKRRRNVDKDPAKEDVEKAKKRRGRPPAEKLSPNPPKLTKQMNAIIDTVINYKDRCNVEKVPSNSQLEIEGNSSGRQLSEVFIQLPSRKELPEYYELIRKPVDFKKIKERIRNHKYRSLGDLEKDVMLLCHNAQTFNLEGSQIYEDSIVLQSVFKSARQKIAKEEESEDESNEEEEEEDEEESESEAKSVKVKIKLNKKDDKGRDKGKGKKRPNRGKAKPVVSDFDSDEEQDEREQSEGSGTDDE
Chain of BRG-1 (P51532 whole entry): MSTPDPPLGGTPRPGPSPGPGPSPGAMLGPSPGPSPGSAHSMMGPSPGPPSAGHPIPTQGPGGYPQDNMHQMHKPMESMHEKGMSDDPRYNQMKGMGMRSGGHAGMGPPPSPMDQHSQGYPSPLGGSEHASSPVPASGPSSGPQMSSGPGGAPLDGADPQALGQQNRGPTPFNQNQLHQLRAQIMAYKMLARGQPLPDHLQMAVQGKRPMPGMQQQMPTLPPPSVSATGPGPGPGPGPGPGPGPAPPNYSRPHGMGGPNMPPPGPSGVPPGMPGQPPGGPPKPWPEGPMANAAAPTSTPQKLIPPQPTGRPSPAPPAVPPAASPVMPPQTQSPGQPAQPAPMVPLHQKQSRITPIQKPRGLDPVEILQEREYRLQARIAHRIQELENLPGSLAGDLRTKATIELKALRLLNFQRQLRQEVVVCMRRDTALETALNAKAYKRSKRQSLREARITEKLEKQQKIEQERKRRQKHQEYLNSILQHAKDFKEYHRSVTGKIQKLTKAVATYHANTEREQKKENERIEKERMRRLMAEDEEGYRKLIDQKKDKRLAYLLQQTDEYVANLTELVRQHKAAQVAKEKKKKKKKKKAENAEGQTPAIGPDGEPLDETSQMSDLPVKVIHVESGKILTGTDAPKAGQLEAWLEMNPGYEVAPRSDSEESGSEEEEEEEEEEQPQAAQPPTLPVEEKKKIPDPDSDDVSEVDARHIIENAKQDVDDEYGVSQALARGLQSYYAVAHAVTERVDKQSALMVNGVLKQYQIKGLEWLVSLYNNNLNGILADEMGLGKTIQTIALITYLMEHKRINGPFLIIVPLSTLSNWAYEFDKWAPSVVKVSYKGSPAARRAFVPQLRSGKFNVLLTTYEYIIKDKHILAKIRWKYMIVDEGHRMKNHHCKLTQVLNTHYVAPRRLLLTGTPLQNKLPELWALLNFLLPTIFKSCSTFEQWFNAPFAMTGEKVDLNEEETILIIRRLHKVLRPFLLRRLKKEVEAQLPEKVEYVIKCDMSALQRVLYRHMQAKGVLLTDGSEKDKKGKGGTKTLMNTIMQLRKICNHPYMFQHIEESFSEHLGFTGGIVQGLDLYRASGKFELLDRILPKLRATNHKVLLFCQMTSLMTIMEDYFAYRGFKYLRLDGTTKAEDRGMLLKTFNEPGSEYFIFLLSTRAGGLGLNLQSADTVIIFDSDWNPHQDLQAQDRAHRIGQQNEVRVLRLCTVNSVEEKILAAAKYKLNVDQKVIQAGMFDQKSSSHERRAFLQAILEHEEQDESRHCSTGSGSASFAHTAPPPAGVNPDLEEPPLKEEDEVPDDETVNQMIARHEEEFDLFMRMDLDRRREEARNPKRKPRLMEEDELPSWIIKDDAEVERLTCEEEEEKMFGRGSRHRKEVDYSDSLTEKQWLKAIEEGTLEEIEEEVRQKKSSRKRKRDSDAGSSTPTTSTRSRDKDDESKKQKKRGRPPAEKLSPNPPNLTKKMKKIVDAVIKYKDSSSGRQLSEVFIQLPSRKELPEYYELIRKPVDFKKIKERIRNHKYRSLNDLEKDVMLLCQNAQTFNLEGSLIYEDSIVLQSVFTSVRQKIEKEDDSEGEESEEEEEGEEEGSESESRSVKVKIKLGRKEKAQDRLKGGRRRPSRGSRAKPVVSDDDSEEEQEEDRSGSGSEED

Compound	IC50 (BRG-1; 30 nM BRG-1, 400 μM ATP)	Emax (BRG-1; 30 nM BRG-1, 400 μM ATP)	BRM Max % Inhibition (BRM; 30 nM BRM, 400 μM ATP)	IC50 (BRM; 30 nM BRM, 400 μM ATP)	IC50 (BRG-1)	Emax (BRG-1)	BRM Max % Inhibition (BRM)	IC50 (BRM)
C[C@@H]1CN(c2cccc(-c3csc(NC(=O)CNC(=O)c4cccc(C5(F)CCOC5)c4)n3)n2)C[C@H](C)O1 (stereo in doubt) [Compound 441, N-(2-((4-(6-((cis)-2,6-dimethylmorpholino)pyridin-2-yl)thiazol-2-yl)amino)-2-oxoethyl)-3-((R)-3-fluorotetrahydrofuran-3-yl)benzamide]	> 5 µM	> 90%	>90%	0.1 to 1 µM	–	–	–	–
CC(=O)N(C)c1cc(-c2cccc(-c3csc(NC(=O)CNC(=O)c4cccc(C(C)(C)CN)c4)n3)c2)ccn1 [Compound 56, 3-(1-amino-2-methylpropan-2-yl)-N-(2-((4-(3-(2-(N-methylacetamido)pyridin-4-yl)phenyl)thiazol-2-yl)amino)-2-oxoethyl)benzamide]	–	–	–	–	1 to 5 µM	> 70%	>90%	0.1 to 1 µM
Cc1ccc(C(=O)NCC(=O)Nc2nc(-c3cccc(N4C[C@@H](C)O[C@@H](C)C4)c3)cs2)cc1S(=O)(=O)C(C)C [Compound 125, N-(2-((4-(3-((cis)-2,6-dimethylmorpholino)phenyl)thiazol-2-yl)amino)-2-oxoethyl)-3-(isopropylsulfonyl)-4-methylbenzamide]	–	–	–	–	0.1 to 1 µM	> 80%	>95%	< 0.1 µM
CC1(CO)CCc2ccc(C(=O)NCC(=O)Nc3nc(-c4ccn5ccnc5c4)cs3)cc21 (stereo in doubt) [Compound 178, (R)-3-(hydroxymethyl)-N-(2-((4-(imidazo[1,2-a]pyridin-7-yl)thiazol-2-yl)amino)-2-oxoethyl)-3-methyl-2,3-dihydro-1H-indene-5-carboxamide]	–	–	–	–	> 5 µM	> 50%	>80%	0.1 to 1 µM
COC(=O)N1CCC[C@H](c2csc(NC(=O)CNC(=O)c3ccc4c(c3)C(C)(F)COC4)n2)C1 (stereo in doubt) [Compound 301, methyl (S)-3-(2-(2-((R)-4-fluoro-4-methylisochromane-6-carboxamido)acetamido)thiazol-4-yl)piperidine-1-carboxylate]	–	–	–	–	1 to 5 µM	> 95%	>95%	0.1 to 1 µM
CC(C)(O)c1cccc(C(=O)NCC(=O)Nc2nc(-c3cccc(-c4ccncc4)c3)cs2)c1 [Compound 77]	–	–	–	–	0.1 to 1 µM	> 80%	>90%	0.1 to 1 µM
COc1cc(F)cc(-c2csc(NC(=O)CNC(=O)c3ccc4c(c3)[C@](C)(F)COC4)n2)c1 [Compound 337, (S)-4-fluoro-N-(2-((4-(3-fluoro-5-methoxyphenyl)thiazol-2-yl)amino)-2-oxoethyl)-4-methylisochromane-6-carboxamide]	–	–	–	–	< 0.1 µM	> 95%	>95%	< 0.1 µM
C[C@@H]1CN(c2cc(-c3csc(NC(=O)CNC(=O)c4ccc5c(c4)[C@](C)(C#N)COC5)n3)ccn2)C[C@H](C)O1 [Compound 347, (R)-4-cyano-N-(2-((4-(2-((cis)-2,6-dimethylmorpholino)pyridin-4-yl)thiazol-2-yl)amino)-2-oxoethyl)-4-methylisochromane-6-carboxamide]	–	–	–	–	< 0.1 µM	> 95%	>95%	< 0.1 µM
C[C@@H]1CN(c2cccc(-c3csc(NC(=O)CNC(=O)c4ccc5c(c4)C(C)(CO)COC5)n3)c2)C[C@H](C)O1 (stereo in doubt) [Compound 373, (S)-N-(2-((4-(3-((cis)-2,6-dimethylmorpholino)phenyl)thiazol-2-yl)amino)-2-oxoethyl)-4-(hydroxymethyl)-4-methylisochromane-6-carboxamide]	–	–	–	–	1 to 5 µM	> 90%	>90%	0.1 to 1 µM
Cc1nccc(-c2cccc(-c3csc(NC(=O)CNC(=O)c4cccc(C(C)(C)CO)c4)n3)n2)n1 [Compound 222, 3-(2-hydroxy-1,1-dimethyl-ethyl)-N-[2-[[4-[6-(2-methylpyrimidin-4-yl)-2-pyridyl]thiazol-2-yl]amino]-2-oxo-ethyl]benzamide]	–	–	–	–	0.1 to 1 µM	> 80%	>95%	< 0.1 µM
Cn1ncc(-c2cccc(-c3csc(NC(=O)CNC(=O)c4ccc5c(c4)C(C)(CO)CC5)n3)n2)n1 (stereo not shown) [Compound 155, 3-(hydroxymethyl)-3-methyl-N-(2-((4-(6-(2-methyl-2H-1,2,3-triazol-4-yl)pyridin-2-yl)thiazol-2-yl)amino)-2-oxoethyl)-2,3-dihydro-1H-indene-5-carboxamide]	–	–	–	–	1 to 5 µM	> 60%	>90%	0.1 to 1 µM
C[C@@H]1CN(c2cccc(-c3csc(NC(=O)CNC(=O)c4cccc(C5(C(F)F)CCOC5)c4)n3)c2)C[C@H](C)O1 (stereo partly drawn) [Compound 345, 3-(3-(difluoromethyl)tetrahydrofuran-3-yl)-N-(2-((4-(3-((cis)-2,6-dimethylmorpholino)phenyl)thiazol-2-yl)amino)-2-oxoethyl)benzamide]	–	–	–	–	1 to 5 µM	> 95%	>95%	< 0.1 µM
CC1(C(N)=O)CCc2ccc(C(=O)NCC(=O)Nc3nc(-c4cccc(-c5ccncc5)c4)cs3)cc21 (stereo not shown) [Compound 96]	–	–	–	–	1 to 5 µM	> 90%	>95%	0.1 to 1 µM
C[C@@H]1CN(c2cccc(-c3csc(NC(=O)CNC(=O)c4cnc5c(c4)[C@](C)(C#N)CC5)n3)c2)C[C@H](C)O1 [Compound 170, (R)-5-cyano-N-(2-((4-(3-((cis)-2,6-dimethylmorpholino)phenyl)thiazol-2-yl)amino)-2-oxoethyl)-5-methyl-6,7-dihydro-5H-cyclopenta[b]pyridine-3-carboxamide]	–	–	–	–	< 0.1 µM	> 95%	>95%	< 0.1 µM
CN1C[C@@](C)(C#N)c2cc(C(=O)NCC(=O)Nc3nc(-c4cc(F)cc(N5CCC5)c4)cs3)ccc21 [Compound 289, (S)-N-(2-((4-(3-(azetidin-1-yl)-5-fluorophenyl)thiazol-2-yl)amino)-2-oxoethyl)-3-cyano-1,3-dimethylindoline-5-carboxamide]	–	–	–	–	< 0.1 µM	> 95%	>95%	< 0.1 µM
C[C@@H]1CN(c2cccc(-c3csc(NC(=O)CNC(=O)c4cccc([C@]5(C(F)F)CCCO5)c4)n3)c2)C[C@H](C)O1 [Compound 291, 3-((S)-2-(difluoromethyl)tetrahydrofuran-2-yl)-N-(2-((4-(3-((cis)-2,6-dimethylmorpholino)phenyl)thiazol-2-yl)amino)-2-oxoethyl)benzamide]	–	–	–	–	> 5 µM	> 90%	>90%	0.1 to 1 µM
Cc1nccc(-c2cccc(-c3csc(NC(=O)CNC(=O)c4ccc5c(c4)[C@@](C)(CO)CCC5)n3)n2)n1 [Compound 211, (4S)-4-(hydroxymethyl)-4-methyl-N-[2-[[4-[6-(2-methylpyrimidin-4-yl)-2-pyridyl]thiazol-2-yl]amino]-2-oxo-ethyl]tetralin-6-carboxamide]	–	–	–	–	> 5 µM	> 40%	>80%	0.1 to 1 µM
O=C(CNC(=O)c1ccc2c(c1)S(=O)(=O)CCCC2)Nc1nc(-c2cccc(-c3ccncc3)c2)cs1 [Compound 129, 1,1-dioxo-N-[2-oxo-2-[[4-[3-(4-pyridyl)phenyl]thiazol-2-yl]amino]ethyl]-2,3,4,5-tetrahydro-1benzothiepine-8-carboxamide]	–	–	–	–	< 0.1 µM	> 95%	>95%	< 0.1 µM
Cc1cc(-c2cccc(-c3csc(NC(=O)CNC(=O)c4cccc(S(=O)(=O)C(C)C)c4)n3)c2)ncn1 [Compound 127, 3-isopropylsulfonyl-N-[2-[[4-[3-(6-methylpyrimidin-4-yl)phenyl]thiazol-2-yl]amino]-2-oxoethyl] benzamide]	–	–	–	–	0.1 to 1 µM	> 90%	>95%	< 0.1 µM
CC(C)(C(N)=O)c1cccc(C(=O)NCC(=O)Nc2nc(-c3cccc(-c4ccncc4)c3)cs2)c1 [Compound 84, 3-(1-amino-2-methyl-1-oxopropan-2-yl)-N-(2-oxo-2-((4-(3-(pyridin-4-yl)phenyl)thiazol-2-yl)amino)ethyl)benzamide]	–	–	–	–	1 to 5 µM	> 90%	>95%	0.1 to 1 µM
C[C@@H]1CN(c2cccc(-c3csc(NC(=O)CNC(=O)c4cccc([C@H]5COC[C@H]5O)c4)n3)c2)C[C@H](C)O1 (relative stereo) [Compound 424, N-(2-((4-(3-((cis)-2,6-dimethylmorpholino)phenyl)thiazol-2-yl)amino)-2-oxoethyl)-3-((cis)-4-hydroxytetrahydrofuran-3-yl)benzamide]	> 5 µM	> 80%	>80%	0.1 to 1 µM	–	–	–	–
C[C@@H]1CN(c2cccc(-c3csc(NC(=O)CNC(=O)c4cccc([C@]5(F)C[C@@H](O)C5)c4)n3)c2)C[C@H](C)O1 [Compound 151, N-(2-((4-(3-((cis)-2,6-dimethylmorpholino)phenyl)thiazol-2-yl)amino)-2-oxoethyl)-3-((1s,3s)-1-fluoro-3-hydroxycyclobutyl)benzamide]	–	–	–	–	0.1 to 1 µM	> 95%	>95%	< 0.1 µM

— patent US12685735B2 (Foghorn Therapeutics Inc., priority 2020, dated 2026)
